Data published in patent US6495588B2, “Scytonemin and methods of using thereof” (The Regents of the University of California, priority 2000, dated 2002).

Key:
PKA = molecular target: T1, PKA (Bos taurus, UniProt P00517); experiment: PKA activity assay; type: biochemical, bovine
T1 construct: 0.5 μg PKA (from bovine heart supplied by Sigma, St. Louis, Mo.); purchased Sigma, St. Louis, Mo; host or cells: bovine heart tissue
Experimental: RhPKCβ2 was expressed in a baculovirus expression system. Kinase reactions were conducted in 50 μl comprising 0.5 μg rhPKC diluted in 2 mM Tris, and 100 μM EGTA and reaction buffer comprising substrate (0.9 mM EGTA, 1.1 mM CaCl2, 0.01 mg/ml glycogen synthase peptide (H-[…]OH) (Bachem, King of Prussia, Pa.), 40 μg/ml L-α-Phosphatidyl-L-serine, 1 μg/ml 1,3-Diolen, 10 mM MgCl2, pH 7.5). To assess PKA activity, kinase reactions were conducted in 50 μl comprising 0.5 μg PKA (from bovine heart supplied by Sigma, St. Louis, Mo.) diluted in 10 mM MOPS, pH 6.5 and reaction buffer comprising substrate (50 mM MOPS, pH 6.5, 10 mM MgCl2, 0.1 mg/ml Histone-IIA (Sigma, St. Louis, Mo.), 1 μM cAMP). An ATP solution (0.01 μM ATP and 0.5 μCi of [γ^33-P] ATP) was then added to the wells in both assay systems. Inhibitors were added at the indicated concentrations with a final DMSO concentration of 10%. Reactions were allowed to proceed for 20 minutes at 37° C. and were stopped with 25 mM EDTA. The reactions were spotted onto filter paper, washed four times in a beaker comprising 75 mM phosphoric acid and rinsed with acetone. Filters were dried and put in scintillation vials with fluid and counted.

[1] = test system: PMA-induced mouse ear skin hyperplasia; experiment: Tissue hyperplasia assay (PMA-induced mouse ear skin hyperplasia); type: in vivo
Experimental: To determine the in vivo efficacy of syctonemin, PMA-induced mouse ear skin hyperplasia model was used. As one cause of tissue hyperplasia is chronic inflammation, mouse ear skin was exposed to multiple PMA applications to simulate chronic inflammation. Specifically, 0.125, 0.25, 0.5, or 1.0 mg of scytonemin in 20 μl of 20% DMSO and 80% acetone was applied to the inner pinnae of the left ears of male, Swiss Webster mice (Taconic Farms, Germantown, N.Y.) at 0, 5, 24, 29, 48, and 53 hours. The inner pinnae of the right ears received only 10 μl of vehicle and 10 μl of acetone at 0, 5, 24, 29, 48, and 53 hours. At 0.5 and 48.5 hours, 4 μg/ear PMA (Sigma, St. Louis, Mo.) in 10 μl acetone was applied to the inner pinnae the left ears and 10 μl acetone was applied to each right ear. One hour after the last scytonemin application (54 hours) each mouse was injected with 0.6 ml of a solution containing IUdR (2 μCi-I^125/mouse) and 26 μg FUdR. This IUdR/FUdR solution was made up in RPMI 1640 media. At 72 hours, the mice were euthanized via CO2 inhalation, the ears were excised and soaked individually in a 70% EtOH solution overnight.
At 96 hours, IUdR incorporation was then measured using a Beckman Gamma counter, Model 5500B. […] IUdR incorporated was calculated by the following equation: % IUdR incorporation=(Count of Ear−Background)/(Total Count−Background). The percent of control of IUdR incorporation was calculated by the following equation: % Control=(% IUdR Uptake in Sample Ear)/(% IUdR Uptake PMA−Treated Control Ear)×100.
Alternatively, the cyrosections of the mouse ears were stained and histologically analyzed. […]
At 72 hours, the mice were euthanized and the ears were immediately embedded in a suitable hypoxy resin such as OCT media and snap frozen using melting isopentane using conventional methods. […] The sections were fixed and stained with hematoxlin and then analyzed under a microscope with a 10× magnification.

scytonemin
IC50 (PKA): > 10 µM | concentration at which PKA activity is significantly affected or inhibited (PKA; 0.01 μM ATP): ≥ 10 µM | thickness of the epidermal layer ([1]; PMA-treated mouse ears): reduced the thickness of the epidermal layer | tissue hyperplasia (histology, hematoxlin) ([1]; scytonemin 1 mg/ear, dexamethasone 0.15 mg/ear, PMA 4 μg/ear): to about normal | ED50 skin hyperplasia (IUdR incorporation) ([1]; topical): about 0.270±0.11 mg/ear
